# Source: US8071625B2, “Certain chemical entities, compositions, and methods” (Cytokinetics, Inc., priority 2006, dated 2011)
# Target: T1, crosslinked smooth muscle actomyosin (chicken gizzard smooth muscle myosin subfragment-1 crosslinked to cardiac or skeletal actin) (Gallus gallus, UniProt P10587)
# T1 construct: chicken gizzard smooth muscle myosin subfragment-1; from tissue; host or cells: chicken gizzard
# Experiment: Lead optimization pyruvate kinase/horseradish peroxidase/pyruvate oxidase-coupled ATPase assay (compound dose response)
# Type: biochemical
# Details: read-out: IC50 Arithmetic Mean
# Method in brief: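 IC50 is the midpoint of a 4-parameter dose–response fit of Amplex Red fluorescence (480/615 nm). Buffer was 12 mM potassium PIPES pH 7.00 at 22 °C with 100 mM KCl, 2 mM MgCl2, 0.15 mM ATP and 2 mM phosphate, with PK/pyruvate oxidase/HRP coupling. Enzyme: smooth muscle myosin S1 crosslinked to cardiac or skeletal actin, dosed empirically by activity.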
row,IC50,Structure (SMILES)
1,0.125 µM,CCc1ccc(NC(=O)OCC2(C(=O)NCc3ccccc3Cl)CCN(C(=O)[C@@H](N)CO)CC2)cc1 [(1-((2S)-2-amino-3-hydroxypropanoyl)-4-{[N-(4-ethylphenyl)carbamoyloxy]methyl}(4-piperidyl))-N-[(2-chlorophenyl)methyl]carboxamide]
2,0.21 µM,CCc1ccc(NC(=O)OCCN(CCO)C(=O)NCc2ccccc2Cl)cc1 [[2-({[(2-chlorophenyl)methyl]amino}-N-(2-hydroxyethyl)carbonylamino)ethoxy]-N-(4-ethylphenyl)carboxamide]
3,5.51 µM,"CCc1ccc(NC(=O)OCC2(C(=O)NCc3ccccc3Cl)CC(O)C(O)C2)cc1 (stereo not shown) [N-[(2-chlorophenyl)methyl](1-{[N-(4-ethylphenyl)carbamoyloxy]methyl}-3,4-dihydroxycyclopentyl)carboxamide]"
4,0.191 µM,Cc1ccc(NC(=O)OCC2(C(=O)NCc3ccccc3Cl)CCN(C(=O)CN)CC2)cc1 [(1-(2-aminoacetyl)-4-{[N-(4-methylphenyl)carbamoyloxy]methyl}(4-piperidyl))-N-[(2-chlorophenyl)methyl]carboxamide]
5,0.641 µM,CCc1ccc(NC(=O)OCC2(C(=O)NCc3ccccc3Cl)CCN(C(=O)C3CC3)CC2)cc1 [N-[(2-chlorophenyl)methyl](1-(cyclopropylcarbonyl)-4-{[N-(4-ethylphenyl)carbamoyloxy]methyl}(4-piperidyl))carboxamide]
6,0.697 µM,"Cc1ccc(NC(=O)OCC2(C(=O)NCc3ccccc3Cl)CCOCC2)cc1 [N-[(2-chlorophenyl)methyl](4-{[N-(4-methylphenyl)carbamoyloxy]methyl}(2H-3,4,5,6-tetrahydropyran-4-yl))carboxamide]"
7,0.492 µM,CCc1ccc(NC(=O)OCC2(C(=O)NCc3ccccc3Cl)CCN(C(=O)CCCO)CC2)cc1 [N-[(2-chlorophenyl)methyl](4-{[N-(4-ethylphenyl)carbamoyloxy]methyl}-1-(4-hydroxybutanoyl)(4-piperidyl))carboxamide]
8,0.474 µM,CCc1ccc(NC(=O)OCC2(C(=O)NCc3ccccc3Cl)CCCN(C(=O)CN)C2)cc1 (stereo not shown) [(1-(2-aminoacetyl)-3-{[N-(4-ethylphenyl)carbamoyloxy]methyl}(3-piperidyl))-N-[(2-chlorophenyl)methyl]carboxamide]
9,14.9 µM,CCc1ccc(CC(=O)NCC2(C(=O)NCc3ccccc3Cl)CCN(C(=O)CN)CC2)cc1 [N-[(1-(2-aminoacetyl)-4-{N-[(2-chlorophenyl)methyl]carbamoyl}(4-piperidyl))methyl]-2-(4-ethylphenyl)acetamide]
10,3.99 µM,CCc1ccc(NC(=O)OCC(C)(NC(=O)CN)C(=O)NCc2ccccc2Cl)cc1 (stereo not shown) [2-(2-aminoacetylamino)-N-[(2-chlorophenyl)methyl]-3-[N-(4-ethylphenyl)carbamoyloxy]-2-methylpropanamide]
11,0.088 µM,"CCc1ccc(NC(=O)OCC2(C(=O)NCc3cccc(Cl)c3Cl)CCN(C(=O)CN)CC2)cc1 [[(1-(2-aminoacetyl)-4-{N-[(2,3-dichlorophenyl)methyl]carbamoyl}(4-piperidyl))methoxy]-N-(4-ethylphenyl)carboxamide]"
12,0.797 µM,CCc1ccc(NC(=O)OCC2(C(=O)NCc3ccccc3Cl)CCN(C(=O)C(N)CC#N)CC2)cc1 (stereo not shown) [(1-(2-amino-3-cyanopropanoyl)-4-{[N-(4-ethylphenyl)carbamoyloxy]methyl}(4-piperidyl))-N-[(2-chlorophenyl)methyl]carboxamide]
13,2.62 µM,CCc1ccc(NC(=O)NCC2CCCN2C(=O)NCc2ccccc2Cl)cc1 (stereo not shown) [N-[(2-chlorophenyl)methyl][2-({[(4-ethylphenyl)amino]carbonylamino}methyl)pyrrolidinyl]carboxamide]
14,0.059 µM,"CCc1ccc(NC(=O)OCCN(C)C(=O)NCc2cccc(Cl)c2Cl)cc1 [{[(2,3-dichlorophenyl)methyl]amino}-N-{2-[N-(4-ethylphenyl)carbamoyloxy]ethyl}-N-methylcarboxamide]"
15,12.1 µM,"Cc1ccc(NC(=O)OCC2(C(=O)NCc3ccccc3Cl)CCOCC2)cc1C(F)(F)F [N-[(2-chlorophenyl)methyl][4-({N-[4-methyl-3-(trifluoromethyl)phenyl]carbamoyloxy}methyl)(2H-3,4,5,6-tetrahydropyran-4-yl)]carboxamide]"
16,4.95 µM,CCc1ccc(NC(=O)OCC2(C(=O)NCc3ccccc3Cl)CCN(C(=O)c3ccc(C(=O)c4ccccc4)cc3)CC2)cc1 [N-[(2-chlorophenyl)methyl](4-{[N-(4-ethylphenyl)carbamoyloxy]methyl}-1-{[4-(phenylcarbonyl)phenyl]carbonyl}(4-piperidyl))carboxamide]
17,16.8 µM,"CCc1ccc(NC(=O)N[C@H]2CCCC[C@@H]2C(=O)NCc2ccccc2Cl)cc1 [((1S,2S)-2-{[(4-ethylphenyl)amino]carbonylamino}cyclohexyl)-N-[(2-chlorophenyl)methyl]carboxamide]"
18,16.1 µM,"NC(=O)c1ccc(NC(=O)OCC2(C(=O)NCc3ccccc3Cl)CCOCC2)cc1 [4-{[(4-{N-[(2-chlorophenyl)methyl]carbamoyl}-2H-3,4,5,6-tetrahydropyran-4-yl)methoxy]carbonylamino}benzamide]"
19,18.5 µM,CCc1ccc(NC(=O)OCC2(C(=O)NCc3ncc[nH]3)CCN(C(=O)CN)CC2)cc1 [({1-(2-aminoacetyl)-4-[N-(imidazol-2-ylmethyl)carbamoyl](4-piperidyl)}methoxy)-N-(4-ethylphenyl)carboxamide]
20,1.1 µM,CCc1ccc(NC(=O)OCC2(C(=O)NCc3ccc(F)cc3)CCN(C(=O)CN)CC2)cc1 [[(1-(2-aminoacetyl)-4-{N-[(4-fluorophenyl)methyl]carbamoyl}(4-piperidyl))methoxy]-N-(4-ethylphenyl)carboxamide]
21,0.197 µM,"CCc1ccc(NC(=O)OCC2(C(=O)NCc3ccccc3Cl)CCOCC2)cc1 [N-[(2-chlorophenyl)methyl](4-{[N-(4-ethylphenyl)carbamoyloxy]methyl}(2H-3,4,5,6-tetrahydropyran-4-yl))carboxamide]"
22,0.146 µM,CCc1ccc(NC(=O)OCC2(C(=O)NCc3ccccc3Br)CCN(C(=O)CN)CC2)cc1 [[(1-(2-aminoacetyl)-4-{N-[(2-bromophenyl)methyl]carbamoyl}(4-piperidyl))methoxy]-N-(4-ethylphenyl)carboxamide]
23,0.487 µM,CCc1ccc(NC(=O)OCCN(CCCCCN)C(=O)NCc2ccccc2Cl)cc1 [N-(5-aminopentyl){[(2-chlorophenyl)methyl]amino}-N-{2-[N-(4-ethylphenyl)carbamoyloxy]ethyl}carboxamide]
24,0.084 µM,CCc1ccc(NC(=O)OCCN(C)C(=O)NCc2ccccc2Cl)cc1 [{[(2-chlorophenyl)methyl]amino}-N-{2-[N-(4-ethylphenyl)carbamoyloxy]ethyl}-N-methylcarboxamide]
25,7.63 µM,"CCc1ccc(N(C)C(=O)OCC2(C(=O)NCc3ccccc3Cl)CCOCC2)cc1 [N-[(2-chlorophenyl)methyl](4-{[N-(4-ethylphenyl)-N-methylcarbamoyloxy]methyl}(2H-3,4,5,6-tetrahydropyran-4-yl))carboxamide]"
26,13.7 µM,CCc1ccc(NC(=O)OCC(NC(C)=O)C(=O)NCc2ccccc2Cl)cc1 (stereo not shown) [2-(acetylamino)-N-[(2-chlorophenyl)methyl]-3-[N-(4-ethylphenyl)carbamoyloxy]propanamide]
27,0.281 µM,Cc1ccc(NC(=O)OCC2(C(=O)NCc3ccccc3Cl)CCN(C(=O)CN)CC2)c(Cl)c1 [(1-(2-aminoacetyl)-4-{[N-(2-chloro-4-methylphenyl)carbamoyloxy]methyl}(4-piperidyl))-N-[(2-chlorophenyl)methyl]carboxamide]
28,0.439 µM,CCc1ccc(NC(=O)OCC2(C(=O)NCc3cccc4ccccc34)CCN(C(=O)CN)CC2)cc1 [({1-(2-aminoacetyl)-4-[N-(naphthylmethyl)carbamoyl](4-piperidyl)}methoxy)-N-(4-ethylphenyl)carboxamide]
29,8.52 µM,CCc1ccc(NC(=O)OC(C)CN(C)C(=O)NCc2ccccc2Cl)cc1 (stereo not shown) [[2-({[(2-chlorophenyl)methyl]amino}-N-methylcarbonylamino)-isopropoxy]-N-(4-ethylphenyl)carboxamide]
30,0.412 µM,CCc1ccc(NC(=O)OCC2(C(=O)NCc3ccccc3Cl)CCN(C(=O)c3ccccc3)CC2)cc1 [N-[(2-chlorophenyl)methyl](4-{[N-(4-ethylphenyl)carbamoyloxy]methyl}-1-(phenylcarbonyl)(4-piperidyl))carboxamide]

row,Structure (SMILES),IC50
1,CCc1ccc(NC(=O)OCC2(C(=O)NCc3ccc(F)cc3Cl)CCN(C(=O)CNC(=O)OC(C)(C)C)CC2)cc1 [[(1-{2-[(tert-butoxy)carbonylamino]acetyl}-4-{N-[(2-chloro-4-fluorophenyl)methyl]carbamoyl}(4-piperidyl))methoxy]-N-(4-ethylphenyl)carboxamide],1.08 µM
2,Cc1c(F)cccc1CNC(=O)C1(COC(=O)Nc2ccc(C(F)(F)F)cc2)CCN(C(=O)CNC(=O)OC(C)(C)C)CC1 [[(1-{2-[(tert-butoxy)carbonylamino]acetyl}-4-{N-[(3-fluoro-2-methylphenyl)methyl]carbamoyl}(4-piperidyl))methoxy]-N-[4-(trifluoromethyl)phenyl]carboxamide],3.18 µM
3,CCc1ccc(NC(=O)OCC2(C(=O)NCc3ccccc3Cl)CCN(C(=O)C(C)N(C)C(=O)OC(C)(C)C)CC2)cc1 (stereo not shown) [(tert-butoxy)-N-[2-(4-{N-[(2-chlorophenyl)methyl]carbamoyl}-4-{[N-(4-ethylphenyl)carbamoyloxy]methyl}piperidyl)-1-methyl-2-oxoethyl]-N-methylcarboxamide],6.18 µM
4,CCc1ccc(NC(=O)OCCN(CCN(C)C(=O)OC(C)(C)C)C(=O)NCc2ccccc2Cl)cc1 [(tert-butoxy)-N-[2-({[(2-chlorophenyl)methyl]amino}-N-{2-[N-(4-ethylphenyl)carbamoyloxy]ethyl}carbonylamino)ethyl]-N-methylcarboxamide],18.2 µM
